Experimental findings from publication PMC6982040, “A Purified Aspartic Protease from Akkermansia Muciniphila Plays an Important Role in Degrading Muc2” (International Journal of Molecular Sciences, 2019) are described below.

Square brackets hold non-standard residues; d marks the D form. Peptide text beside a SMILES is read from it. * marks the point of attachment. Sta = CC(C)C[C@H](N)[C@@H](O)CC(=O)O; Isovaleryl = CC(C)CC(=O)*

This experiment deals with T1, Amuc_1434* (Akkermansia muciniphila, UniProt B2UKY3).
T1 construct: recombinant, 6xHis-tag (N-terminal as printed; Pet25b-His vector), E. coli Rosetta (DE3), Ni-Sepharose; ~50 kDa on SDS-PAGE; b10 says amplified from genomic DNA, b49 says gene synthesized
T1 sequence (B2UKY3 22-326): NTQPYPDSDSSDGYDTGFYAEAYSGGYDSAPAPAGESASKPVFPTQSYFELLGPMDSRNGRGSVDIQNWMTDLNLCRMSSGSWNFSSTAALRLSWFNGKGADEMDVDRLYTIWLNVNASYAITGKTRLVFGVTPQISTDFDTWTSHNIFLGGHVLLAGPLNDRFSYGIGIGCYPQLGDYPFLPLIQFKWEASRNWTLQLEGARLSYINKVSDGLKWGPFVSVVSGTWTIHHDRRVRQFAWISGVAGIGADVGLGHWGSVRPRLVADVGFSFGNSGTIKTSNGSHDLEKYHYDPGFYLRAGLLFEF
Nature of the experiment: hemoglobin hydrolysis, UV absorbance at […] nm. The class given is biochemical. The following applies: read-out: Relative Activity (%).

As to `CC(C)CC(=O)N[C@H](C(=O)N[C@H](C(=O)N[C@@H](CC(C)C)[C@@H](O)CC(=O)N[C@@H](C)C(=O)N[C@@H](CC(C)C)[C@@H](O)CC(=O)O)C(C)C)C(C)C` [pepstatin A] (Isovaleryl-VV[Sta]A[Sta]-OH), the activity at 20 µM is 40.1 ± 6.7%.

For `CC(C)C[C@H](NC(=O)[C@@H]1O[C@H]1C(=O)O)C(=O)NCCCCN=C(N)N` [E-64], the activity at 10 µM came out at 88.5 ± 4.7%.
